According to PMC4240342 (Bioconjugate Chemistry, 2014):

Tested on: human osteosarcoma Saos-2 cells
Experiment: Cytotoxicity, CCK-8 bioassay
Type: cell-based
Details: read-out: IC50, cytotoxicity, 72 h incubation, CCK-8, concentrations as hydrazone-bound DOX content, mean ± SEM of three experiments

## COc1cccc2c1C(=O)c1c(O)c3c(c(O)c1C2=O)C[C@@](O)(C(=O)CO)C[C@@H]3O[C@H]1C[C@H](N)[C@H](O)[C@H](C)O1 [Free DOX, Doxorubicin]
  IC50: 77 ± 9 nM
